Values belong to the compound of their own block, whether it stands above or below them.
Columns and labels:
HCT116 cells = assay: Mitotic spindle phenotype and centrosome fragment distance in HCT116 cells; format: cell-based; conditions: HCT116, paclitaxel alone
Procedure: (§1) FIG. 2A) is a line graph showing the percentage of HCT116 (p53−/−) cells, A549 cells, HeLa cells and H1299 cells in mitosis after treatment with various concentrations of C75 for one population doubling time. All of the cell lines show an increase in the proportion of mitotic cells after treatment with 200 nM C75. The bars indicate standard deviation. […] While the mitotic spindles were not dramatically altered by C75 in HFF1 cells, they were monopolar (as shown) or fragmented in the other cell types. […] The mitotic spindles were more strongly fragmented after C75 treatment in these cells vs. the cells in FIG. 2B). […] While mitotic spindles recovered bipolarity after removing nocodazole, they remained multipolar after removing C75. FIG. 2F) is a series of time-lapse images of a live HeLa cell expressing GFP:tubulin after treatment with C75 as shown in 2D) and 2E). The scale bar for all cells is 10 μm. FIG. 2G) is a schematic showing the putative target for C75. Healthy cells have two centrosomes that separate and form a bipolar spindle, while cancer cells have aberrant centrosomes that cluster to form ‘pseudo’ bipolar spindles, and C75 may target this process and their integrity.
FIG. 3A) is a line graph showing the percentage of mitotic HeLa or HFF1 cells treated with a range of paclitaxel (Taxol™; tubulin-targeting drug) concentrations+/−C75 as indicated. The bars indicate standard deviation. FIG. 3B) is a series of bar graphs showing the proportion of HCT116 cells that have monopolar spindles, bipolar spindles with aligned chromosomes, bipolar spindles with misaligned chromosomes and multipolar/fragmented spindles after treatments as shown. Treatments include DMSO (control), varying concentrations of paclitaxel and/or varying concentrations of C75 after 7 hours. While treatment of HCT116 cells with 2.5 nM paclitaxel caused a threshold of mitotic spindle phenotypes, adding increasing concentrations of C75 in combination with 2.5 nM paclitaxel caused the phenotypes to progressively worsen. FIG. 3C) is bar graph showing the average distance between centrosome fragments in HCT116 cells after treatments as shown. While centrosome fragments moved closer together with increased concentrations of paclitaxel, they moved further apart with increased concentrations of C75. […] FIG. 3E) is a line graph showing the percentage of mitotic HeLa or HFF1 cells treated with a range of nocodazole concentrations+/−C75 as indicated. The bars indicate standard deviation. […]
C75 was also tested for efficacy in different cancer cell lines. […] To further assess the role of C75 in affecting centrosomes, HeLa cells were treated with C75 for a short period of time (5 minutes), then C75 was removed and the cells were analyzed for spindle phenotypes (schematic in FIG. 2D). […]

[1] = test system: HeLa (cervical adenocarcinoma) cells; assay: IC50 (viability) in HeLa cells; format: cell-based, human; conditions: for IC50: Homo sapiens, HeLa cells, cells printed in nM; for efficacy (effect on viability) in cancer cells vs. non-cancer cells: comparison of Table 3 IC50 values
Procedure: (§2) 19 variants with different structural modifications have been made. […] In particular, it is shown that C75 causes death in multiple cancer cells with IC50 values in the 100 nM range, including breast cancers (MCF7, BT549), lung cancer (A549), colorectal cancer (HCT116) in addition to HeLa cells (cervical cancer).

[2] = test system: HFF1 (fibroblast) non-cancer cells; assay: IC50 (viability) in HFF1 non-cancer cells; format: cell-based; conditions: Homo sapiens; HFF-1 non-cancer cells
Procedure: as §2

[3] = test system: MCF-7 (mammary gland carcinoma) cells; assay: IC50 (viability) in MCF-7 cells; format: cell-based; conditions: Homo sapiens, MCF7
Procedure: as §2

HeLa cells = assay: Mitotic spindle / centrosome phenotype in HeLa cells (tubulin and DAPI staining, live imaging); format: cell-based, human
Procedure: There were more rounded mitotic cells after C75 treatment in comparison to the control. FIG. 1B) is a line graph showing the percentage of HeLa and HFF1 cells in mitosis after treatment with various concentrations of C75 for 8 hours. The bars indicate standard deviation. FIG. 1C) is a series of images showing cells that were fixed and co-stained for tubulin (microtubules) and DAPI (DNA). Treatment of HeLa cells with 300 nM C75 caused the mitotic spindles to be disorganized, while they were not affected in HFF1 cells. […] The scale bar for the cells is 10 μm. FIG. 1D) is a cartoon schematic showing the key features of a metaphase cell.
as §1
FIG. 3A) is a line graph showing the percentage of mitotic HeLa or HFF1 cells treated with a range of paclitaxel (Taxol™; tubulin-targeting drug) concentrations+/−C75 as indicated. The bars indicate standard deviation. FIG. 3B) is a series of bar graphs showing the proportion of HCT116 cells that have monopolar spindles, bipolar spindles with aligned chromosomes, bipolar spindles with misaligned chromosomes and multipolar/fragmented spindles after treatments as shown. Treatments include DMSO (control), varying concentrations of paclitaxel and/or varying concentrations of C75 after 7 hours. While treatment of HCT116 cells with 2.5 nM paclitaxel caused a threshold of mitotic spindle phenotypes, adding increasing concentrations of C75 in combination with 2.5 nM paclitaxel caused the phenotypes to progressively worsen. FIG. 3C) is bar graph showing the average distance between centrosome fragments in HCT116 cells after treatments as shown. While centrosome fragments moved closer together with increased concentrations of paclitaxel, they moved further apart with increased concentrations of C75. […] FIG. 3E) is a line graph showing the percentage of mitotic HeLa or HFF1 cells treated with a range of nocodazole concentrations+/−C75 as indicated. The bars indicate standard deviation. FIG. 3F) is a series of images showing fixed HeLa cells after treatment with C75+/− nocodazole co-stained for tubulin, γ-tubulin and DNA (DAPI). […] Adding nocodazole to cells treated with 300 nM C75 caused mitotic spindle phenotypes to worsen and appear more similar to those after treatment with 600 nM C75. The scale bar for all cells is 10 μm. FIG. 3G) is a bar graph showing the percentage of phenotypes observed for metaphase HeLa cells treated with nocodazole or C75, or both for 20 minutes (n>15 per treatment).
Spindle fragmentation only occurred after extensive microtubule depolymerization in colchicine-treated cells, while the spindle poles fragmented prior to changes in microtubules after C75 treatment. The scale bar for all cells is 10 μm.
C75 was further tested and found to cause mitotic arrest in HeLa cells. […]

[4] = test system: MCF-10A (mammary gland fibrocystic disease) non-cancer cells; assay: IC50 (viability) in MCF-10A non-cancer cells; format: cell-based; conditions: Homo sapiens, MCF10A non-cancer cells
Procedure: as §2

[5] = test system: BT549 (breast ductal carcinoma) cells; assay: IC50 (viability) in BT549 cells; format: cell-based; conditions: Homo sapiens, BT-549
Procedure: as §2

[6] = test system: A549 (lung carcinoma) cells; assay: IC50 (viability) in A549 cells; format: cell-based; conditions: Homo sapiens
Procedure: as §2

SMILES: CC(=O)O[C@H]1C(=O)[C@@]2(C)[C@H]([C@H](OC(=O)c3ccccc3)[C@]3(O)C[C@H](OC(=O)[C@H](O)[C@@H](NC(=O)c4ccccc4)c4ccccc4)C(C)=C1C3(C)C)[C@]1(OC(C)=O)CO[C@@H]1C[C@@H]2O [paclitaxel, reference compound]
- change of centrosome fragment distance with increased paclitaxel concentration (HCT116 cells): significant decrease in fragment distance

- IC50 [1]: 197 nM
- IC50 [3]: 1020 nM
SMILES: Cc1ccc(S(=O)(=O)N2Cc3ccccc3-c3sccc32)cc1 [Compound C91]
- efficacy (effect on viability) in cancer cells vs. non-cancer cells [1]: higher efficacy
- IC50 [2]: 920 nM

SMILES: COc1ccc(S(=O)(=O)N2Cc3ccccc3-c3sc(I)cc32)cc1 [Compound C207]
- efficacy (effect on viability) in cancer cells vs. non-cancer cells [1]: higher efficacy

SMILES: COC(=O)Nc1nc2ccc(C(=O)c3cccs3)cc2[nH]1 [nocodazole, reference compound]
- spindle phenotype after drug wash-out (HeLa cells; metaphase HeLa, 5 minutes treatment, washed out, imaged after 40 minutes): bipolar spindles reformed
- spindle phenotype, drugs alone vs. together (HeLa cells; metaphase HeLa, nocodazole or C75 or both, 20 minutes): bipolar spindles with weak microtubules

- IC50 [1]: 845 nM
- IC50 [5]: 4.2 µM
- IC50 [6]: 750 nM
- IC50 [3]: 2460 nM
SMILES: O=S(=O)(c1cccs1)N1Cc2ccccc2-c2sccc21 [Compound C87]
- IC50 [4]: 539 nM

SMILES: COc1cc2c(c(OC)c1OC)-c1ccc(OC)c(=O)cc1[C@@H](NC(C)=O)CC2 [colchicine, reference compound]
- spindle phenotype at lower concentrations (HeLa cells; HeLa, 8 hours, 30 nM colchicine or 300 nM C75): bipolar spindles with less robust microtubules
- spindle phenotype at higher concentrations (HeLa cells; HeLa, 8 hours, 40 or 50 nM colchicine, 400 or 500 nM C75): fragmented spindles, but only after extensive loss of microtubules
